Laboratory results: patent US8871762B2, “Plant disease controlling composition and method for controlling plant disease” (Sumitomo Chemical Company, Limited, priority 2010, dated 2014)
Like-named read-outs stand apart in the source and are kept apart here.

Test system: gray mold fungus (Botrytis cinerea)
Test: Cucumber leaf disk preventive test against gray mold fungus
Assay type: in vivo
Details: for pest or weed control at 0.5 ppm / pest or weed control at 5 ppm: Botrytis cinerea, foliar, 96 h, read-out: preventive value (%)
Protocol: True leaf of cucumber is punched out with cork borer to 13 mm in diameter to prepare a leaf disk. In 24 well microwell plate that is dispensed with 1 ml 0.8% water agar, the leaf disk is placed such that the upper side of the leaf is in an upward direction. Thereto is added 20 micro liter a testing solution prepared by mixing a dimethyl sulfoxide solution of the present compound (racemate) and a dimethyl sulfoxide solution of isopyrazam, boscalid or penthiopyrad to a predetermined concentration to treat the leaf disk.
After confirming that the testing medical solution is dried, conidium of gray mold fungus (Botrytis cinerea) is suspended into potato dextrose broth (DIFCO) in a density of about 10^5 conidium/mL and is then subjected to a spray inoculation. After leaving to stand the leaf disk in a growth chamber set up at 15° C. for four days, an onset area on the leaf is measured and then calculated an onset area rate (hereinafter, referred to as an onset area rate of treated group).
The same operation is carried out with 20 micro liter water instead of 20 micro liter a testing medicine solution to calculate an onset area rate (hereinafter, referred to an onset area rate of non-treated group).
A preventive value is calculated from the above onset area rate of treated group and the onset area rate of non-treated group by the following equation: Preventive value(%)=100×(A−B)/A
A: an onset area rate of treated group
B: an onset area rate of non-treated group […]
For comparison, the same operations as described in Test Example 1 are carried out with the exception that the testing medicine solution is substituted with a predetermined concentration of each dimethyl sulfoxide solution of isopyrazam, boscalid or penthiopyrad, so as to calculate respective preventive values.

[1] = carboxamide compound alone, 0.5 ppm, cucumber leaf disk, 15° C., four days
[2] = carboxamide compound alone, 5.0 ppm, cucumber leaf disk, 15° C., four days

With COC(=O)[C@@H](C)N(C(=O)Cc1ccccc1)c1c(C)cccc1C [benalaxyl-M] the “preventive value (%)” value [1] was 10% and the “preventive value (%)” value [2] was 15%.
For O=C(Nc1ccccc1-c1ccc(Cl)cc1)c1cccnc1Cl [boscalid], the pest or weed control at 0.5 ppm [1] was 49% and the pest or weed control at 5 ppm [2] was 56%.
In the case of C[C@@H](NC(=O)C(C#N)C(C)(C)C)c1ccc(Cl)cc1Cl (stereo partly drawn) [diclocymet], the pest or weed control at 0.5 ppm is reported as 10% and the pest or weed control at 5 ppm is reported as 15%.
For COc1ccc(C(=CC(=O)N2CCOCC2)c2ccc(Cl)cc2)cc1OC [dimethomorph], the pest or weed control at 0.5 ppm [1] was 10% and the pest or weed control at 5 ppm [2] was 15%.
CC1(C(=O)Nc2ccc(O)c(Cl)c2Cl)CCCCC1 [fenhexamid] was tested, and the pest or weed control at 0.5 ppm [1] was 20% and the pest or weed control at 5 ppm [2] was 57%.
O=C(NCCc1ncc(C(F)(F)F)cc1Cl)c1ccccc1C(F)(F)F [fluopyram] gave a pest or weed control at 0.5 ppm [1] of 35% and a pest or weed control at 5 ppm [2] of 45%.
For Cc1nn(C)c(Cl)c1C(=O)Nc1cccc2c1C(C)OC2(C)C (stereo not drawn) [furametpyr], the “preventive value (%)” value [1] was 15% and the “preventive value (%)” value [2] was 20%.
With CC(C)C1C2CCC1c1c(NC(=O)c3cn(C)nc3C(F)F)cccc12 (stereo not drawn) [isopyrazam] the “preventive value (%)” value [1] was 20% and the “preventive value (%)” value [2] was 40%.
For N#Cc1ccccc1NC(=O)c1snc(Cl)c1Cl [isotianil], the “preventive value (%)” value [1] was 10% and the “preventive value (%)” value [2] was 25%.
With COCC(=O)N(c1c(C)cccc1C)N1CCOC1=O [oxadixyl] the pest or weed control at 0.5 ppm was 10% and the pest or weed control at 5 ppm was 15%.
O=C(Nc1ccccc1)N(Cc1ccc(Cl)cc1)C1CCCC1 [pencycuron] was tested, and the pest or weed control at 0.5 ppm [1] was 10% and the pest or weed control at 5 ppm [2] was 15%.
Work on CC(C)CC(C)c1sccc1NC(=O)c1cn(C)nc1C(F)(F)F (stereo not drawn) [penthiopyrad] yielded a pest or weed control at 0.5 ppm [1] of 39% and a pest or weed control at 5 ppm [2] of 45%.
